System: CT26^G12C murine colon carcinoma cells
Assay: Anti-tumor study, CT26^G12C tumors grown subcutaneously in immunocompetent BALB/c mice
Format: in vivo
Details: for Survival rate compared to the control group / Tumor return: Example 1, study end day 54
Method: All pathogen-free animals used in the studies below were housed in a controlled, pathogen-free environment with the following conditions: temperature (19-23° C.), humidity (55% 10%), photoperiod (12 h light/dark cycle), and air exchange. Animals were housed in individually vented cages, with food and water provided ad libitum.
Following testing materials were used for the preclinical, in vivo studies below: vehicle (0.5% HPMC/0.1% Tween 80), AZD4625 (0.5% HPMC/0.1% Tween 80), Compound of Formula IV (0.5% HPMC/0.1% Tween 80) and AZD6738 (10% DMSO/40% PG/50% WFI). For the monotherapies, the vehicle and the inhibitors were dosed orally in a volume of 0.05-0.1 mL/10 g. For the combination therapies, AZD4625 or Compound of Formula IV were dosed 4 or 2 hours after the AM dose of AZD6738.
Tumors were measured three times a week by caliper and the volumes were calculated using elliptical formula (pi/6×width×width×length). Animal bodyweight and tumor condition were also recorded for the duration of the study. Subject mice remained on study until tumor size reached 1.5 cm^3 for anti-tumor studies and 0.7 cm^3 for the rechallenge study, clinical signs were observed, or until the study end date.
(§1) For the study, CT26^G12C murine colon carcinoma cells, engineered to express the KRAS^G12C mutation, were grown subcutaneously in BALB/c mice with an intact immune system. To prepare the subject mice, 5×10^5 and 5×10^4 CT26^G12C (G12C clone P5E6) cells were implanted subcutaneously into the right flank of female BALB/c mice (Envigo UK, Strain ID: HSD-162) or female nude-Foxn1nu mice (Envigo UK, Strain ID: HSD-069), respectively. Once a mean volume of approximately 0.2 cm^3 tumor formed, subject mice were randomized into relevant treatment and control groups and treated with vehicle control, AZD4625 or AZD6738 in monotherapy, or in combination therapy for 4 weeks. AZD4625 was dosed daily and AZD6738 was dosed twice daily on a 7 day-on, 7 day-off schedules for the treatment period (FIG. 1A). Tumor growth and bodyweights of animals were monitored during and post-treatment. Subject mice remained on study until tumor size reached 1.5 cm^3, clinical signs were observed, or to the study end date (day 54).
as §1, with “vehicle control, AZD4625, Compound of Formula IV, or AZD6738” for “vehicle control, AZD4625 or AZD6738”, “monotherapy, or AZD4625 and AZD6738 or Compound of Formula IV and AZD6738 in combination” for “monotherapy, or in combination”, “weeks. AZD4625 and Compound of Formula IV were dosed daily” for “weeks. AZD4625 was dosed daily”, “period (FIG. 2A). Tumor growth” for “period (FIG. 1A). Tumor growth”, “study end date. Mice in the AZD4625 monotherapy and combination groups were monitored up to 65 days post-implant while mice in the Compound of Formula IV monotherapy and combination groups were monitored up to 119 days post-implant.” for “study end date (day 54).”
CT26^G12C murine colon carcinoma cells were grown subcutaneously in BALB/c mice with an intact immune system as described in Examples 1 and 2. […] Tumor growth and body weights of animals were monitored during and post-treatment. Subject mice remained on study until tumor size reached 1.5 cm^3, clinical signs were observed, or to the study end.

[1] = Example 1, 4 weeks oral treatment, compared to control group, FIG. 1B
[2] = Example 5, 4 weeks treatment, compared to vehicle or to KRAS^G12C inhibitor monotherapy, FIG. 5A
[3] = Example 2, 4 weeks oral treatment, FIG. 2B

Compound	Tumor growth response [1]	Survival rate compared to the control group	Tumor return	Tumor growth response [2]	Tumor return after drug cessation (Example 5)	Survival rates (Example 5, FIG. 5B)	Tumor growth response [3]	Tumors returned after drug cessation (Example 2, monitored up to 119 days post-implant)
C[C@@H]1COCCN1c1cc(C2([S@](C)(=N)=O)CC2)nc(-c2ccnc3[nH]ccc23)n1 [AZD6738, 4-{4-[(3R)-3-methylmorpholin-4-yl]-6-[1-((R)—S-methylsulfonimidoyl)cyclopropyl]pyrimidin-2-yl}-1H-pyrrolo[2,3-b]pyridine]	delayed tumor growth	extended survival rate	most tumors ultimately returned	no or weak activity				
C=CC(=O)N1CCN(c2nc(=O)n(-c3c(C)ccnc3C(C)C)c3nc(-c4c(O)cccc4F)c(F)cc23)[C@@H](C)C1 (atropisomer, axis not shown) [sotorasib, reference compound]				initial tumor growth delay	most tumors returning after drug cessation	increased survival rates		
C=CC(=O)N1CCN2Cc3cc(C#CC)c(-c4c(O)cccc4Cl)c(F)c3OC[C@H]2C1 [Compound of Formula IV, 1-[(12aR)-9-(2-chloro-6-hydroxyphenyl)-10-fluoro-8-(prop-1-yn-1-yl)-3,4,12,12a-tetrahydro-6H-pyrazino[2,1-c][1,4]benzoxazepin-2(1H)-yl]prop-2-en-1-one]							tumor regression	8 out of 9
C=CC(=O)N1C[C@@H]2CCOc3c(Cl)c(-c4c(O)cccc4F)c(F)c4ncnc(c34)N2C[C@H]1C [AZD4625, 1-[(6aS,9R)-3-chloro-1-fluoro-2-(2-fluoro-6-hydroxyphenyl)-9-methyl-5,6,6a,7,9,10-hexahydro-8H-pyrazino[1′,2′:5,6][1,5]oxazocino[4,3,2-de]quinazolin-8-yl]prop-2-en-1-one]	delayed tumor growth	extended survival rate	most tumors ultimately returned				tumor regression	
